Data as given in the supplement of paper PMC10307832.

Tests used:
Assay in all cases: relative viability (nuclei count vs DMSO), 5 days (fraction); higher = more cells survive
[1] = tested on: NCI-H23
Outline: (§1)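 Lung cancer cell lines were pin-tool dosed in 1536-well plates on the day after seeding, with either a lone drug or a fixed anchor-drug dose plus five library-drug doses (not always all listed) in √10 steps. Nuclei were counted on 4× images after 5 days. Relative viability is the ratio of treated-well to vehicle-well nuclei counts, with each value a median of duplicate plates.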

[2] = tested on: NCI-H1355
Outline: as §1

[3] = tested on: NCI-H1993
Outline: as §1

[4] = tested on: UMC-11
Outline: as §1

[5] = tested on: LCLC-97TM1
Outline: as §1

[6] = tested on: NCI-H322M
Outline: as §1

[7] = tested on: NCI-H596
Outline: as §1

[8] = tested on: NCI-H1648
Outline: as §1

## CC(=O)O[C@@]12CO[C@@H]1C[C@H](O)[C@@]1(C)C(=O)[C@H](O)C3=C(C)[C@@H](OC(=O)[C@H](O)[C@@H](NC(=O)OC(C)(C)C)c4ccccc4)C[C@@](O)([C@@H](OC(=O)c4ccccc4)[C@H]21)C3(C)C [Docetaxel] + Nc1nc2[nH]cc(CCc3ccc(C(=O)N[C@@H](CCC(=O)O)C(=O)O)cc3)c2c(=O)[nH]1 [Pemetrexed] (partner 0.2 µM)
[1]; first compound 0.0002 µM
  relative viability: 0.712
[1]; first compound 0.000632 µM
  relative viability: 0.557
[1]; first compound 0.002 µM
  relative viability: 0.258
[1]; first compound 0.006325 µM
  relative viability: 0.207
[1]; first compound 0.02 µM
  relative viability: 0.14
[2]; first compound 0.0002 µM
  relative viability: 1.09
[2]; first compound 0.000632 µM
  relative viability: 0.958
[2]; first compound 0.002 µM
  relative viability: 0.789
[2]; first compound 0.006325 µM
  relative viability: 0.309
[2]; first compound 0.02 µM
  relative viability: 0.198
[3]; first compound 0.0002 µM
  relative viability: 0.641
[3]; first compound 0.000632 µM
  relative viability: 0.762
[3]; first compound 0.002 µM
  relative viability: 0.64
[3]; first compound 0.006325 µM
  relative viability: 0.444
[3]; first compound 0.02 µM
  relative viability: 0.391
[4]; first compound 0.0002 µM
  relative viability: 0.717
[4]; first compound 0.000632 µM
  relative viability: 0.698
[4]; first compound 0.002 µM
  relative viability: 0.325
[4]; first compound 0.006325 µM
  relative viability: 0.256
[4]; first compound 0.02 µM
  relative viability: 0.195
[5]; first compound 0.0002 µM
  relative viability: 0.167
[5]; first compound 0.000632 µM
  relative viability: 0.161
[5]; first compound 0.002 µM
  relative viability: 0.129
[5]; first compound 0.006325 µM
  relative viability: 0.109
[5]; first compound 0.02 µM
  relative viability: 0.0702
[6]; first compound 0.0002 µM
  relative viability: 0.552
[6]; first compound 0.000632 µM
  relative viability: 0.602
[6]; first compound 0.002 µM
  relative viability: 0.689
[6]; first compound 0.006325 µM
  relative viability: 0.642
[6]; first compound 0.02 µM
  relative viability: 0.486
[7]; first compound 0.0002 µM
  relative viability: 0.486
[7]; first compound 0.000632 µM
  relative viability: 0.568
[7]; first compound 0.002 µM
  relative viability: 0.675
[7]; first compound 0.006325 µM
  relative viability: 0.441
[7]; first compound 0.02 µM
  relative viability: 0.369
[8]; first compound 0.0002 µM
  relative viability: 0.73
[8]; first compound 0.000632 µM
  relative viability: 0.758
[8]; first compound 0.002 µM
  relative viability: 0.386
[8]; first compound 0.006325 µM
  relative viability: 0.186
[8]; first compound 0.02 µM
  relative viability: 0.231

## COc1cc2nccc(Oc3ccc(NC(=O)Nc4cc(C)on4)c(Cl)c3)c2cc1OC [Tivozanib] + Nc1nc2[nH]cc(CCc3ccc(C(=O)N[C@@H](CCC(=O)O)C(=O)O)cc3)c2c(=O)[nH]1 [Pemetrexed] (partner 0.2 µM)
[1]; first compound 0.005 µM
  relative viability: 0.588
[1]; first compound 0.01581 µM
  relative viability: 0.771
[1]; first compound 0.05 µM
  relative viability: 0.787
[1]; first compound 0.5 µM
  relative viability: 0.54
[2]; first compound 0.005 µM
  relative viability: 1.03
[2]; first compound 0.01581 µM
  relative viability: 1.01
[2]; first compound 0.05 µM
  relative viability: 1.04
[2]; first compound 0.1581 µM
  relative viability: 0.763
[2]; first compound 0.5 µM
  relative viability: 1.07
[3]; first compound 0.005 µM
  relative viability: 0.572
[3]; first compound 0.01581 µM
  relative viability: 0.467
[3]; first compound 0.05 µM
  relative viability: 0.674
[3]; first compound 0.1581 µM
  relative viability: 0.499
[3]; first compound 0.5 µM
  relative viability: 0.662
[4]; first compound 0.005 µM
  relative viability: 0.807
[4]; first compound 0.01581 µM
  relative viability: 0.698
[4]; first compound 0.05 µM
  relative viability: 0.718
[4]; first compound 0.1581 µM
  relative viability: 0.619
[4]; first compound 0.5 µM
  relative viability: 0.755
[5]; first compound 0.005 µM
  relative viability: 0.183
[5]; first compound 0.01581 µM
  relative viability: 0.178
[5]; first compound 0.05 µM
  relative viability: 0.157
[5]; first compound 0.1581 µM
  relative viability: 0.172
[5]; first compound 0.5 µM
  relative viability: 0.148
[6]; first compound 0.005 µM
  relative viability: 0.586
[6]; first compound 0.01581 µM
  relative viability: 0.621
[6]; first compound 0.05 µM
  relative viability: 0.588
[6]; first compound 0.1581 µM
  relative viability: 0.635
[6]; first compound 0.5 µM
  relative viability: 0.602
[7]; first compound 0.005 µM
  relative viability: 0.492
[7]; first compound 0.01581 µM
  relative viability: 0.502
[7]; first compound 0.05 µM
  relative viability: 0.51
[7]; first compound 0.5 µM
  relative viability: 0.508
[8]; first compound 0.005 µM
  relative viability: 0.723
[8]; first compound 0.01581 µM
  relative viability: 0.704
[8]; first compound 0.05 µM
  relative viability: 0.778
[8]; first compound 0.1581 µM
  relative viability: 0.652
[8]; first compound 0.5 µM
  relative viability: 0.546

## Nc1ccn([C@@H]2O[C@H](CO)[C@@H](O)[C@@H]2O)c(=O)n1 [Cytarabine] + CC(=O)Nc1cccc(-n2c(=O)n(C3CC3)c(=O)c3c(Nc4ccc(I)cc4F)n(C)c(=O)c(C)c32)c1 [Trametinib] (partner 0.02 µM)
[1]; first compound 0.005 µM
  relative viability: 0.441
[1]; first compound 0.01581 µM
  relative viability: 0.355
[1]; first compound 0.05 µM
  relative viability: 0.223
[1]; first compound 0.1581 µM
  relative viability: 0.165
[1]; first compound 0.5 µM
  relative viability: 0.14
[2]; first compound 0.005 µM
  relative viability: 0.367
[2]; first compound 0.01581 µM
  relative viability: 0.38
[2]; first compound 0.05 µM
  relative viability: 0.398
[2]; first compound 0.1581 µM
  relative viability: 0.303
[2]; first compound 0.5 µM
  relative viability: 0.282
[3]; first compound 0.005 µM
  relative viability: 0.425
[3]; first compound 0.01581 µM
  relative viability: 0.518
[3]; first compound 0.05 µM
  relative viability: 0.498
[3]; first compound 0.1581 µM
  relative viability: 0.437
[3]; first compound 0.5 µM
  relative viability: 0.432
[4]; first compound 0.005 µM
  relative viability: 0.487
[4]; first compound 0.01581 µM
  relative viability: 0.424
[4]; first compound 0.05 µM
  relative viability: 0.373
[4]; first compound 0.1581 µM
  relative viability: 0.216
[4]; first compound 0.5 µM
  relative viability: 0.183
[5]; first compound 0.005 µM
  relative viability: 0.191
[5]; first compound 0.01581 µM
  relative viability: 0.159
[5]; first compound 0.05 µM
  relative viability: 0.173
[5]; first compound 0.1581 µM
  relative viability: 0.136
[5]; first compound 0.5 µM
  relative viability: 0.135
[6]; first compound 0.005 µM
  relative viability: 0.484
[6]; first compound 0.01581 µM
  relative viability: 0.456
[6]; first compound 0.05 µM
  relative viability: 0.441
[6]; first compound 0.1581 µM
  relative viability: 0.429
[6]; first compound 0.5 µM
  relative viability: 0.402
[7]; first compound 0.005 µM
  relative viability: 0.812
[7]; first compound 0.01581 µM
  relative viability: 0.759
[7]; first compound 0.05 µM
  relative viability: 0.69
[7]; first compound 0.1581 µM
  relative viability: 0.5
[7]; first compound 0.5 µM
  relative viability: 0.499
[8]; first compound 0.005 µM
  relative viability: 0.419
[8]; first compound 0.01581 µM
  relative viability: 0.4
[8]; first compound 0.05 µM
  relative viability: 0.44
[8]; first compound 0.1581 µM
  relative viability: 0.36
[8]; first compound 0.5 µM
  relative viability: 0.373

## Cc1sc2c(c1C)C(c1ccc(Cl)cc1)=N[C@@H](CC(=O)OC(C)(C)C)c1nnc(C)n1-2 [JQ1] + CC(=O)c1c(C)c2cnc(Nc3ccc(N4CCNCC4)cn3)nc2n(C2CCCC2)c1=O [Palbociclib] (partner 0.5 µM)
[1]; first compound 0.04 µM
  relative viability: 0.597
[1]; first compound 0.1265 µM
  relative viability: 0.48
[1]; first compound 0.4 µM
  relative viability: 0.275
[1]; first compound 1.265 µM
  relative viability: 0.26
[1]; first compound 4 µM
  relative viability: 0.215
[2]; first compound 0.04 µM
  relative viability: 0.375
[2]; first compound 0.1265 µM
  relative viability: 0.372
[2]; first compound 0.4 µM
  relative viability: 0.323
[2]; first compound 1.265 µM
  relative viability: 0.276
[2]; first compound 4 µM
  relative viability: 0.233
[3]; first compound 0.04 µM
  relative viability: 0.772
[3]; first compound 0.1265 µM
  relative viability: 0.734
[3]; first compound 0.4 µM
  relative viability: 0.613
[3]; first compound 1.265 µM
  relative viability: 0.613
[3]; first compound 4 µM
  relative viability: 0.714
[4]; first compound 0.04 µM
  relative viability: 0.292
[4]; first compound 0.1265 µM
  relative viability: 0.226
[4]; first compound 0.4 µM
  relative viability: 0.227
[4]; first compound 1.265 µM
  relative viability: 0.257
[4]; first compound 4 µM
  relative viability: 0.184
[5]; first compound 0.04 µM
  relative viability: 0.255
[5]; first compound 0.1265 µM
  relative viability: 0.159
[5]; first compound 0.4 µM
  relative viability: 0.15
[5]; first compound 1.265 µM
  relative viability: 0.0928
[5]; first compound 4 µM
  relative viability: 0.0931
[6]; first compound 0.04 µM
  relative viability: 0.477
[6]; first compound 0.1265 µM
  relative viability: 0.491
[6]; first compound 0.4 µM
  relative viability: 0.428
[6]; first compound 1.265 µM
  relative viability: 0.385
[6]; first compound 4 µM
  relative viability: 0.406
[8]; first compound 0.04 µM
  relative viability: 0.259
[8]; first compound 0.1265 µM
  relative viability: 0.303
[8]; first compound 0.4 µM
  relative viability: 0.332
[8]; first compound 1.265 µM
  relative viability: 0.358
[8]; first compound 4 µM
  relative viability: 0.309
